Patent US8557225B2, “Solution and method for cleaning tooth enamel” (priority 2008, dated 2013)

Key:
[1] = 6% solution applied over the enamel; cited from earlier work
[2] = citric acid solution applied over the enamel; format: in vivo; conditions: 6% citric acid in the improved solution, over the teeth enamel
From the text: Citric acid as incorporated in the present disclosure is an irrigating substance classified as a chelating agent which, due to its low pH, reacts with the metallic ions in the hydroxyapatite crystals in order to produce a metallic chelating agent which reacts with the chelating agent's terminal groups when removing calcium ions of the dentine, forming a ring. The dentine softens changing the solubility and permeability aspects of the tissue, especially the peritubular dentine, rich in hydroxyapatite, increasing the diameter of the exposed dental tubes. These chelating agent properties also provide a great affinity as thus used due to ferrous alkali characteristics of the dental structure. Also, this chelating agent is naturally found inside the body, thus making it biologically more acceptable than other acids. Citric acid is effective in altering the hydroxyapatite solubility; it has been used in several concentrations, from 0.6 up to 50% by weight. Its effect is very fast and it only requires five seconds to apply a 6% solution over the enamel to remove the undesired dental covering.
This action is favorably strengthened when citric acid (C6O7H8) is included in the composition at the approximate 6% (weight percent) level. (Tables 1 and 2). […]

Q: Which “time required to remove the undesired dental covering” value [1] does the source give for `O=C(O)CC(O)(CC(=O)O)C(=O)O` [Citric acid, citric acid] here?
A: five seconds

Q: And the “time required after applying for dissolving the organic matter” value [2]?
A: thirty seconds
